Results published in paper PMC8765437, “GSK3640254 Is a Novel HIV-1 Maturation Inhibitor with an Optimized Virology Profile” (Antimicrobial Agents and Chemotherapy, 2022).
Where two headings read alike, the source gives them in different places.

What was measured:
Assay type in all cases: cell-based
HIV-1 laboratory strains = experiment: Laboratory strains, reverse transcriptase activity in MT-2 cells
Description: (§1) Virus yields were measured in dose-response experiments by either luciferase activity in human T-cells (CEM-NKR-CCR5-Luc), extracellular reverse transcriptase activity in MT-2 cells (T-tropic viruses), or extracellular p24 antigen in PM1 cells (M-tropic viruses).
Multiple-cycle assays using recombinant viruses or clinical isolates were used to assess MI antiviral activity as described previously ([10]). pNLRepRlucP373S (the P373S change is in the Gag gene and converts an outlier polymorphism in the NL4-3 gene to the prevalent amino acid in the population) plasmids containing SDMs in Gag or gag/pr regions from clinical isolates were transfected into HEK 293T cells, and the supernatant containing recombinant virus was harvested after 4 to 5 days. Virus was used to infect MT-2 cells in the presence of a 3-fold serially diluted compound at a final dimethyl sulfoxide (DMSO) concentration of 1%. The inocula of the reporter viruses were determined based on the luciferase activity detected on day 4 postinfection. The MOI (ratio of infectious virions to target cells) of reporter-free laboratory strains and clinical isolates was 0.005, as derived from a tissue culture infectious dose study. Clinical isolates or reporter-free viruses were examined in the reporter CEM-NKR-CCR5-Luc cells or PBMCs at MOIs ranging from 0.005 to 0.01. Each infection started with a drug-free preincubation of the cell-virus mixtures, performed at 37°C and 5% CO2 for either 1 h at 2 times the final cell density (reporter viruses) or 1 h (reporter-free laboratory strains) or 3 h (clinical isolates) using cell pellets in 0.5 mL of medium. After preincubation, cell-virus mixtures were added to compound-containing 96-well plates for a final cell density of either 10,000 (MT-2 cells for reporter viruses), 20,000 (MT-2 and PM1 cells for reporter-free laboratory strains), 200,000 (PBMCs for clinical isolates), or 500,000 (CEM-NKR-CCR5-Luc for reporter-free laboratory strains) cells per well. The CEM-NKR-CCR5-Luc cell assay was performed in the presence of Polybrene (10 μg/mL). Virus growth was determined on days 4 to 5 postinfection for reporter variants or days 5 to 11 for the other viruses. The reporter viruses were detected by a luciferase assay according to manufacturer protocols (Brite-Glo luciferase kit [Promega] for CEM-NKR-CCR5-Luc cells and Dual-Luciferase Reporter 1000 assay system [Promega] for the other cells), and luminescence was detected on a Wallac Trilux. The growth of clinical isolates in PBMCs was quantitated by reverse transcriptase activity in a 96-well scintillation proximity assay (SPA). Twenty microliters of culture supernatants was mixed with 40 μL of reaction cocktail (62.5 mM Tris-HCl [pH 7.8], 100 mM KCl, 0.0625% NP-40, 2.5 mM dithiothreitol [DTT], 6.25 mM MgCl2, 1 mM EGTA, 6.25 μg/mL of poly rA, 2.5 μg/mL of streptavidin SPA beads prebound with biotinylated-dT12-18, and 1 μCi of [^3H]TTP). Mixtures were incubated at 37°C for ∼3 h and quenched with 100 μl of 0.25 M EDTA per well. Luminescence was detected on a Wallac Trilux programmed for tritium counting with SPA beads in opaque plates. The growth of the reporter-free laboratory M-tropic strains and clinical isolates was monitored by a p24 enzyme-linked immunosorbent assay (ELISA; PerkinElmer Life Sciences, Waltham, MA) performed on culture supernatants.
(§2) Maximal percent inhibition values were calculated as MPI = 100 – (mean signals at the 2 highest concentrations of compound/mean signal of 2 no-drug control wells) × 100.

HIV-2 strains = experiment: HIV-2 strains, luciferase activity in CEM-NKR-CCR5-Luc cells; settings: Human immunodeficiency virus 2, HIV-2 ROD; first value in cell
Description: as §1
Multiple-cycle assays using recombinant viruses or clinical isolates were used to assess MI antiviral activity as described previously ([10]). pNLRepRlucP373S (the P373S change is in the Gag gene and converts an outlier polymorphism in the NL4-3 gene to the prevalent amino acid in the population) plasmids containing SDMs in Gag or gag/pr regions from clinical isolates were transfected into HEK 293T cells, and the supernatant containing recombinant virus was harvested after 4 to 5 days. Virus was used to infect MT-2 cells in the presence of a 3-fold serially diluted compound at a final dimethyl sulfoxide (DMSO) concentration of 1%. The inocula of the reporter viruses were determined based on the luciferase activity detected on day 4 postinfection. […] Virus growth was determined on days 4 to 5 postinfection for reporter variants or days 5 to 11 for the other viruses. The reporter viruses were detected by a luciferase assay according to manufacturer protocols (Brite-Glo luciferase kit [Promega] for CEM-NKR-CCR5-Luc cells and Dual-Luciferase Reporter 1000 assay system [Promega] for the other cells), and luminescence was detected on a Wallac Trilux. The growth of clinical isolates in PBMCs was quantitated by reverse transcriptase activity in a 96-well scintillation proximity assay (SPA). […] Luminescence was detected on a Wallac Trilux programmed for tritium counting with SPA beads in opaque plates. The growth of the reporter-free laboratory M-tropic strains and clinical isolates was monitored by a p24 enzyme-linked immunosorbent assay (ELISA; PerkinElmer Life Sciences, Waltham, MA) performed on culture supernatants.
as §2

[1] = tested on: HIV-1 viruses containing Gag region SDMs; experiment: Single-cycle infection assay with Gag SDM viruses
Description: Single-cycle infection assays were performed as described previously ([10]). Half-maximal effective concentration values were calculated as the compound concentration that inhibits 50% of the maximal signal (no-drug control), correcting for background. Background was determined as the residual signal observed upon inhibition at the highest concentration of a control protease inhibitor, nelfinavir (3 μM). Half-maximal fold change effective concentration versus WT values were calculated by dividing the EC50 of the recombinant virus by the EC50 of WT RepRlucNL4-3 virus run in parallel.

## C=C(C)[C@@H]1CC[C@]2(NCCN3CCS(=O)(=O)CC3)CC[C@]3(C)[C@H](CC[C@@H]4[C@@]5(C)CC=C(c6ccc(C(=O)O)cc6)C(C)(C)[C@@H]5CC[C@]43C)[C@@H]12 [GSK’795, reference compound]
HIV-1 laboratory strains; Human immunodeficiency virus 1, HXB2, MT2, HXB2, footnote b: RT activity in MT-2 cells, read-out: GSK’795 EC50 ± SD
  EC50: 9.3 ± 3.9 nM
HIV-1 laboratory strains; Human immunodeficiency virus 1, IIIB, MT2, IIIB, footnote b: RT activity in MT-2 cells, read-out: GSK’795 EC50 ± SD
  EC50: 2.5 ± 0.8 nM
HIV-1 laboratory strains; Human immunodeficiency virus 1, MT2, LAI, footnote b: RT activity in MT-2 cells, read-out: GSK’795 EC50 ± SD
  EC50: 2.4 ± 0.8 nM
HIV-1 laboratory strains; Human immunodeficiency virus 1, MT2, MN, footnote b: RT activity in MT-2 cells, read-out: GSK’795 EC50 ± SD
  EC50: 1 nM
HIV-1 laboratory strains; Human immunodeficiency virus 1, MT2, RF, head footnote b: RT activity in MT-2 cells unless otherwise noted, read-out: GSK’795 EC50 ± SD
  EC50: 6.9 ± 2.8 nM
HIV-1 laboratory strains; Human immunodeficiency virus 1, NL43, MT2, NL4-3, first value in cell, footnote b: RT activity in MT-2 cells, read-out: GSK’795 EC50 ± SD
  EC50: 3.9 ± 2.2 nM
HIV-1 laboratory strains; Human immunodeficiency virus 1, NL43, MT2, NL4-3, second value in cell, read-out: EC50 (converted)
  EC50: 19 nM
HIV-2 strains
  EC50: > 3000 nM
[1]; A364V
  MPI: 8%
[1]; A366V
  MPI: 3%
[1]; A366V/V370M
  MPI: 3%
[1]; H358Y/ΔT371
  MPI: 18%
[1]; Human immunodeficiency virus 1, read-out: Mean ± SD EC50, A364V
  EC50: > 3000 nM
[1]; Human immunodeficiency virus 1, read-out: Mean ± SD EC50, A366V
  EC50: > 3000 nM
[1]; Human immunodeficiency virus 1, read-out: Mean ± SD EC50, A366V/V370M
  EC50: > 3000 nM
[1]; Human immunodeficiency virus 1, read-out: Mean ± SD EC50, H358Y/ΔT371
  EC50: > 3000 nM
[1]; Human immunodeficiency virus 1, read-out: Mean ± SD EC50, I333V/V362I
  EC50: > 3000 nM
[1]; Human immunodeficiency virus 1, read-out: Mean ± SD EC50, I333V/V370
  EC50: > 3000 nM
[1]; Human immunodeficiency virus 1, read-out: Mean ± SD EC50, I333V/V370A
  EC50: > 3000 nM
[1]; Human immunodeficiency virus 1, read-out: Mean ± SD EC50, M367V
  EC50: > 3000 nM
[1]; Human immunodeficiency virus 1, read-out: Mean ± SD EC50, R361K/V362I/L363M
  EC50: > 3000 nM
[1]; Human immunodeficiency virus 1, read-out: Mean ± SD EC50, T33N/V370A
  EC50: 30 nM
[1]; Human immunodeficiency virus 1, read-out: Mean ± SD EC50, T332N/V370A
  EC50: 30 nM
[1]; Human immunodeficiency virus 1, read-out: Mean ± SD EC50, T332S/V362I/prR41G
  EC50: > 3000 nM
[1]; Human immunodeficiency virus 1, read-out: Mean ± SD EC50, V362I
  EC50: 14 ± 6 nM
[1]; Human immunodeficiency virus 1, read-out: Mean ± SD EC50, V362I/A366V
  EC50: > 3000 nM
[1]; Human immunodeficiency virus 1, read-out: Mean ± SD EC50, V362I/A366V/V370M
  EC50: > 3000 nM
[1]; Human immunodeficiency virus 1, read-out: Mean ± SD EC50, V362I/H219Q
  EC50: 66 nM
[1]; Human immunodeficiency virus 1, read-out: Mean ± SD EC50, V362I/H219Q/T332S
  EC50: 710 nM
[1]; Human immunodeficiency virus 1, read-out: Mean ± SD EC50, V362I/V370A
  EC50: > 3000 nM
[1]; Human immunodeficiency virus 1, read-out: Mean ± SD EC50, V362I/V370M
  EC50: > 3000 nM
[1]; Human immunodeficiency virus 1, read-out: Mean ± SD EC50, V370A
  EC50: 6 nM
[1]; Human immunodeficiency virus 1, read-out: Mean ± SD EC50, V370M
  EC50: 13 ± 11 nM
[1]; Human immunodeficiency virus 1, read-out: Mean ± SD EC50, Wild type
  EC50: 5 ± 3 nM
[1]; Human immunodeficiency virus 1, read-out: Mean ± SD EC50, ΔV370
  EC50: 110 nM
[1]; I333V/V362I
  MPI: −30%
[1]; I333V/V370
  MPI: −36%
[1]; I333V/V370A
  MPI: 10%
[1]; M367V
  MPI: 36%
[1]; R361K/V362I/L363M
  MPI: 36%
[1]; T33N/V370A
  MPI: 70%
[1]; T332N/V370A
  MPI: 70%
[1]; T332S/V362I/prR41G
  MPI: −30%
[1]; V362I
  MPI: 68%
[1]; V362I/A366V
  MPI: −109%
[1]; V362I/A366V/V370M
  MPI: −62%
[1]; V362I/H219Q
  MPI: 60%
[1]; V362I/H219Q/T332S
  MPI: 52%
[1]; V362I/V370A
  MPI: 31%
[1]; V362I/V370M
  MPI: 51%
[1]; V370A
  MPI: 84%
[1]; V370M
  MPI: 78%
[1]; Wild type
  MPI: 94%
[1]; ΔV370
  MPI: 60%
